The source of these data is patent US12304932B2, “PACAP stabilized peptide” (SENJU PHARMACEUTICAL CO., LTD., priority 2017, dated 2025).

Square brackets hold non-standard residues; d marks the D form. Peptide text beside a SMILES is read from it. Ala(1H-tetrazol-5-yl) = N[C@@H](Cc1nnn[nH]1)C(=O)O

This data set is described as follows: Peptide stability tests 2 and 3: Tris buffer pH 7.0, stored at 60° C., HPLC conditions 2. It counts as physicochemical. Particulars: 100 μM peptide, Tris buffer pH 7.0, 60° C.; for survival rate after correction for water, 60° C., 2-week storage: 2 weeks. As to the method:
(§1) Peptides 1, 2 and 6 to 9 synthesized in Example 2 were weighed and dissolved in Tris buffer (pH 7.0) to prepare 1.0 mM peptide solutions. The solutions were filtered with a Chromatdisk (product of Merck Millipore, Millex-GV, 0.22 μm). Each filtrate was diluted to 100 μM with Tris buffer (pH 7.0) and dispensed into a tube (Protein LoBind Tube by Eppendorf Co.). The prepared peptide solutions were incubated for 1 week or 2 weeks in a 60° C. thermostatic bath to obtain stored samples. A simultaneously prepared sample among the peptide solutions that was not stored was used as a standard sample (initial sample). The standard sample and the stored samples were stored at −30° C. until sample analysis.
Each stored sample was measured under the following HPLC analysis conditions 2, and the survival rate after correction for water for each peptide among the stored samples was calculated in the same manner as Example 3.
Column: XSelect CSH C18 by Waters Co., 5 μm, 4.6×250 mm
Guard column: XSelect CSH C18 by Waters. Co., 5 μm, 4.6×20 mm Guard Cartridge
Detection wavelength: 220 nm
Mobile phase A: 0.1% formic acid in water
Mobile phase B: 0.1% formic acid in acetonitrile
Measuring time: 20 minutes
Measuring sample injection rate: 50 μL
Column temperature: 40° C.
Mobile phase delivery: The mixing ratio of mobile phase A and mobile phase B was varied as shown in Table 5 for linear concentration gradient control.
as §1, with “Peptides 12 to 25, 27” for “Peptides 1, 2”, “and 28” for “and 6 to 9”, “for one” for “for 1”
The survival rate after correction for water for each peptide among the stored samples was calculated in the same manner as Example 4, and the results are shown in Table 7.
as §1, with “29” for “1, 2 and 6”, “34” for “9”, “for” for “for 1 week or”
The survival rate after correction for water for each peptide among the stored samples was calculated in the same manner as Example 4, and the results are shown in Table 7-2.

As to `CC[C@H](C)[C@H](NC(=O)CNC(=O)[C@H](Cc1nnn[nH]1)NC(=O)[C@H](C)NC(=O)[C@H](Cc1c[nH]cn1)NC(C)=O)C(=O)N[C@@H](Cc1ccccc1)C(=O)N[C@H](C(=O)N[C@@H](Cc1nnn[nH]1)C(=O)N[C@@H](CO)C(=O)N[C@@H](Cc1ccc(O)cc1)C(=O)N[C@@H](CO)C(=O)N[C@@H](CCCNC(=N)N)C(=O)N[C@@H](Cc1ccc(O)cc1)C(=O)N[C@@H](CCCNC(=N)N)C(=O)N[C@@H](CCCCN)C(=O)N[C@@H](CCC(N)=O)C(=O)N[C@@H](CC(C)C)C(=O)N[C@@H](C)C(=O)N[C@H](C(=O)N[C@@H](CCCCN)C(=O)N[C@@H](CCCCN)C(=O)N[C@@H](Cc1ccc(O)cc1)C(=O)N[C@@H](CC(C)C)C(=O)N[C@@H](C)C(=O)N[C@@H](C)C(=O)N[C@H](C(=O)N[C@@H](CC(C)C)C(N)=O)C(C)C)C(C)C)[C@@H](C)O` [Peptide 14] (Ac-HA[Ala(1H-tetrazol-5-yl)]GIFT[Ala(1H-tetrazol-5-yl)]SYSRYRKQLAVKKYLAAVL-NH2), the “survival rate after correction for water, 60° C., 1-week storage” value (“survival rate … 1-week storage” for short) was 96.7% and the “survival rate after correction for water, 60° C., 2-week storage” value (“survival rate … 2-week storage” below) came to 94.5%.
The matching figures for `CC[C@H](C)[C@H](NC(=O)CNC(=O)[C@H](Cc1nnn[nH]1)NC(=O)[C@H](CO)NC(=O)[C@H](Cc1c[nH]cn1)NC(C)=O)C(=O)N[C@@H](Cc1ccccc1)C(=O)N[C@H](C(=O)N[C@@H](Cc1nnn[nH]1)C(=O)N[C@@H](C)C(=O)N[C@@H](Cc1ccc(O)cc1)C(=O)N[C@@H](CO)C(=O)N[C@@H](CCCNC(=N)N)C(=O)N[C@@H](Cc1ccc(O)cc1)C(=O)N[C@@H](CCCNC(=N)N)C(=O)N[C@@H](CCCCN)C(=O)N[C@@H](CCC(N)=O)C(=O)N[C@@H](CC(C)C)C(=O)N[C@@H](C)C(=O)N[C@H](C(=O)N[C@@H](CCCCN)C(=O)N[C@@H](CCCCN)C(=O)N[C@@H](Cc1ccc(O)cc1)C(=O)N[C@@H](CC(C)C)C(=O)N[C@@H](C)C(=O)N[C@@H](C)C(=O)N[C@H](C(=O)N[C@@H](CC(C)C)C(N)=O)C(C)C)C(C)C)[C@@H](C)O` [Peptide 15] (Ac-HS[Ala(1H-tetrazol-5-yl)]GIFT[Ala(1H-tetrazol-5-yl)]AYSRYRKQLAVKKYLAAVL-NH2): 97.3% and 94.9%.
Take `CC[C@H](C)[C@H](NC(=O)CNC(=O)[C@H](Cc1nnn[nH]1)NC(=O)[C@H](CO)NC(=O)[C@H](Cc1c[nH]cn1)NC(C)=O)C(=O)N[C@@H](Cc1ccccc1)C(=O)N[C@H](C(=O)N[C@@H](Cc1nnn[nH]1)C(=O)N[C@@H](CO)C(=O)N[C@@H](Cc1ccc(O)cc1)C(=O)N[C@@H](C)C(=O)N[C@@H](CCCNC(=N)N)C(=O)N[C@@H](Cc1ccc(O)cc1)C(=O)N[C@@H](CCCNC(=N)N)C(=O)N[C@@H](CCCCN)C(=O)N[C@@H](CCC(N)=O)C(=O)N[C@@H](CC(C)C)C(=O)N[C@@H](C)C(=O)N[C@H](C(=O)N[C@@H](CCCCN)C(=O)N[C@@H](CCCCN)C(=O)N[C@@H](Cc1ccc(O)cc1)C(=O)N[C@@H](CC(C)C)C(=O)N[C@@H](C)C(=O)N[C@@H](C)C(=O)N[C@H](C(=O)N[C@@H](CC(C)C)C(N)=O)C(C)C)C(C)C)[C@@H](C)O` [Peptide 16] (Ac-HS[Ala(1H-tetrazol-5-yl)]GIFT[Ala(1H-tetrazol-5-yl)]SYARYRKQLAVKKYLAAVL-NH2): the “survival rate … 1-week storage” value is reported as 98.1% and the “survival rate … 2-week storage” value was 93.5%.
Turning to `CC[C@H](C)[C@H](NC(=O)CNC(=O)[C@H](Cc1nnn[nH]1)NC(=O)[C@H](CO)NC(=O)[C@H](Cc1c[nH]cn1)NC(C)=O)C(=O)N[C@@H](Cc1ccccc1)C(=O)N[C@H](C(=O)N[C@@H](Cc1nnn[nH]1)C(=O)N[C@@H](CO)C(=O)N[C@@H](Cc1ccc(O)cc1)C(=O)N[C@@H](CO)C(=O)N[C@@H](CCCNC(=N)N)C(=O)N[C@@H](Cc1ccc(O)cc1)C(=O)N[C@@H](CCCNC(=N)N)C(=O)N[C@@H](CCCCN)C(=O)N[C@@H](C)C(=O)N[C@@H](CC(C)C)C(=O)N[C@@H](C)C(=O)N[C@H](C(=O)N[C@@H](CCCCN)C(=O)N[C@@H](CCCCN)C(=O)N[C@@H](Cc1ccc(O)cc1)C(=O)N[C@@H](CC(C)C)C(=O)N[C@@H](C)C(=O)N[C@@H](C)C(=O)N[C@H](C(=O)N[C@@H](CC(C)C)C(N)=O)C(C)C)C(C)C)[C@@H](C)O` [Peptide 17] (Ac-HS[Ala(1H-tetrazol-5-yl)]GIFT[Ala(1H-tetrazol-5-yl)]SYSRYRKALAVKKYLAAVL-NH2), the “survival rate … 1-week storage” value is recorded as 97.8% and the “survival rate … 2-week storage” value is given as 93.4%.
The like results for `CC[C@H](C)[C@H](NC(=O)CNC(=O)[C@H](Cc1nnn[nH]1)NC(=O)[C@H](CO)NC(=O)[C@H](Cc1c[nH]cn1)NC(C)=O)C(=O)N[C@@H](Cc1ccccc1)C(=O)N[C@H](C(=O)N[C@@H](Cc1nnn[nH]1)C(=O)N[C@@H](CO)C(=O)N[C@@H](Cc1ccc(O)cc1)C(=O)N[C@@H](CO)C(=O)N[C@@H](CCCNC(=N)N)C(=O)N[C@@H](Cc1ccc(O)cc1)C(=O)N[C@@H](CCCNC(=N)N)C(=O)N[C@@H](CCCCN)C(=O)N[C@@H](CCC(N)=O)C(=O)N[C@@H](C)C(=O)N[C@@H](C)C(=O)N[C@H](C(=O)N[C@@H](CCCCN)C(=O)N[C@@H](CCCCN)C(=O)N[C@@H](Cc1ccc(O)cc1)C(=O)N[C@@H](CC(C)C)C(=O)N[C@@H](C)C(=O)N[C@@H](C)C(=O)N[C@H](C(=O)N[C@@H](CC(C)C)C(N)=O)C(C)C)C(C)C)[C@@H](C)O` [Peptide 18] (Ac-HS[Ala(1H-tetrazol-5-yl)]GIFT[Ala(1H-tetrazol-5-yl)]SYSRYRKQAAVKKYLAAVL-NH2) were, in that order, 96.7% and 90.6%.
Regarding `CC[C@H](C)[C@H](NC(=O)CNC(=O)[C@H](Cc1nnn[nH]1)NC(=O)[C@H](CO)NC(=O)[C@H](Cc1c[nH]cn1)NC(C)=O)C(=O)N[C@@H](Cc1ccccc1)C(=O)N[C@H](C(=O)N[C@@H](Cc1nnn[nH]1)C(=O)N[C@@H](CO)C(=O)N[C@@H](Cc1ccc(O)cc1)C(=O)N[C@@H](CO)C(=O)N[C@@H](CCCNC(=N)N)C(=O)N[C@@H](Cc1ccc(O)cc1)C(=O)N[C@@H](CCCNC(=N)N)C(=O)N[C@@H](CCCCN)C(=O)N[C@@H](CCC(N)=O)C(=O)N[C@@H](CC(C)C)C(=O)N[C@@H](C)C(=O)N[C@@H](C)C(=O)N[C@@H](CCCCN)C(=O)N[C@@H](CCCCN)C(=O)N[C@@H](Cc1ccc(O)cc1)C(=O)N[C@@H](CC(C)C)C(=O)N[C@@H](C)C(=O)N[C@@H](C)C(=O)N[C@H](C(=O)N[C@@H](CC(C)C)C(N)=O)C(C)C)[C@@H](C)O` [Peptide 19] (Ac-HS[Ala(1H-tetrazol-5-yl)]GIFT[Ala(1H-tetrazol-5-yl)]SYSRYRKQLAAKKYLAAVL-NH2), the “survival rate … 1-week storage” value was found to be 95.8% and the “survival rate … 2-week storage” value was found to be 92.7%.
